Data published in patent US20050238740A1, “Use of mastic and its components for the control of microbial infections” (priority 2002, published 2005).
Converted amounts (≈) assume the structure as drawn. “And” between values parts separate entries of the source, which are not always exact repeats. Identical values can stand only once. Like-named read-outs stand apart in the source and are kept apart here.

Assays:
Assay in all cases: MTT cytotoxic/cytostatic activity, 48 hours exposure
Type in all cases: cell-based
[1] = system: human epidermoid carcinoma A431; conditions: for IC50: Homo sapiens, A-431
Procedure: (§1) Three extracts derived from Pistacia lentiscus var. Chia were tested for their cytotoxic/cytostatic activity against three established cancer cell lines, i.e human mammary adenocarcinoma MCF-7, human colon adenocarcinoma HT-29, and human epidermoid carcinoma A431. A modification of the MTT method (Denizot and Lang, 1986, J Immunol Meth 89, 271) was used for the assessment of cytotoxicity. Briefly, exponentially growing cells were exposed to varying concentrations of the test compounds (or control medium) for 48 hours. Then, the medium was replaced with MTT [3-(4,5-dimethylthiazol-2-yl)-2,5-diphenyltetrazolium bromide] for a further 4 -hour incubation. Finally, the MTT-formazan was solubilized in isopropanol and the optical density was measured at a wavelength of 550 nm and a reference wavelength of 690 nm. A representative example of the semi-log inhibition curves obtained after exposure of A43 1 cells to the three Pistacia lentiscus extracts is illustrated in FIG. 2.
The inhibition curves were used to determine the IC50 of each extract, i.e. the concentration that produced a 50% reduction of the absorbance relative to the absorbance of the control culture. The average IC50s of each extract for each cell line, after at least three independent trials, are presented in the following table (5-fluorouracil a classical chemotherapeutic agent, was included as a positive control in the case of A431 epidermoid carcinoma cells):
We used the methodology of MTT (see Example 6), using A431 cells. The average IC50s of each compound, after at least three independent trials, are presented in the following table (the data of the previous report regarding A431 cells are included in the table for reasons of comparison):
The neutral extract of the essential oil and two of the isolated ingredients, i.e. isomasticadienolic acid, and oleanonic acid were tested for […] activity using the methodology of MTT (Example 7) and three established human cancer cell lines.

[2] = system: human lung carcinoma A549; conditions: two independent trials, essential oil dissolved in absolute ethanol (Table 11)
[3] = system: human colon adenocarcinoma HT-29; conditions: two independent trials, essential oil dissolved in absolute ethanol (Table 11)
Procedure: as §1
The inhibition curves were used to determine the IC50 of each extract, i.e. the concentration that produced a 50% reduction of the absorbance relative to the absorbance of the control culture. […]

[4] = A431, at least three independent trials (Table 10), read-out: IC50, inhibition of A431 cancer cell proliferation

**Q.** Which results are given for `O=c1[nH]cc(F)c(=O)[nH]1` [5-fluorouracil, reference compound]?
**A.** IC50 [1, 4]: 2.25 µg/mL and 17.3 µM; IC50 ([1]; Epidermoid carcinoma A431, 48 hours, at least three independent trials (Table 9), read-out: IC50, inhibition of cancer cell proliferation): 2.25 µg/mL (≈ 17.3 µM)

**Q.** How did the “average IC50” value ([1]; Epidermoid carcinoma A431, two independent trials, essential oil dissolved in absolute ethanol (Table 11)) turn out when `C/C(=C/CC[C@H](C)[C@@H]1CC[C@]2(C)C3=C(CC[C@@]12C)[C@@]1(C)CC[C@H](O)C(C)(C)[C@@H]1CC3)C(=O)O` [Isomasticadienolic, isomasticadienolic acid] was run?
**A.** 25 (±5) μg/mL

**Q.** And the “average IC50” value [2]?
**A.** 95 (±5) μg/mL

**Q.** What about the “average IC50” value [3] of the same compound?
**A.** 95 (±5) μg/mL

**Q.** With `CC1(C)C=C2[C@H]3CC[C@@H]4[C@@]5(C)CCC(=O)C(C)(C)[C@@H]5CC[C@@]4(C)[C@]3(C)CC[C@@]2(C(=O)O)CC1` [moronic, moronic acid] as the compound, how does the IC50 [1, 4] read?
**A.** 47.7 µg/mL and 105 µM

**Q.** `CC1(C)CC[C@]2(C(=O)O)CC[C@]3(C)C(=CC[C@@H]4[C@@]5(C)CCC(=O)C(C)(C)[C@@H]5CC[C@]43C)[C@@H]2C1` [oleanonic, oleanonic acid] was tested. Which IC50 [1, 4] did it give?
**A.** 17.5 µg/mL and 38.3 µM

**Q.** And the IC50 ([1]; Epidermoid carcinoma A431, two independent trials, essential oil dissolved in absolute ethanol (Table 11), read-out: average IC50)?
**A.** 45 µg/mL (≈ 99 µM)

**Q.** And the IC50 ([2]; Homo sapiens)?
**A.** 110 µg/mL (≈ 242 µM)

**Q.** What about the IC50 ([3]; Homo sapiens) of the same compound?
**A.** 105 µg/mL (≈ 231 µM)
